Test results as given in publication PMC3606385 (PLoS ONE, 2013).
Values joined by “and” are separate entries in the source; they are usually repeats but may differ in a detail not shown here. Equal values may be shown once. Read-outs that look alike come from different tables or passages of the source.

Columns and labels:
Human 11β-HSD2 = molecular target: T1, Human 11β-HSD2 (Homo sapiens, UniProt P80365); test: 11β-HSD2 assay in human kidney microsomes; format: biochemical; settings: human kidney microsomes
T1 construct: tissue Gentest (Woburn, MA); host or cells: human kidney microsomes
T1 sequence (P80365 1-405): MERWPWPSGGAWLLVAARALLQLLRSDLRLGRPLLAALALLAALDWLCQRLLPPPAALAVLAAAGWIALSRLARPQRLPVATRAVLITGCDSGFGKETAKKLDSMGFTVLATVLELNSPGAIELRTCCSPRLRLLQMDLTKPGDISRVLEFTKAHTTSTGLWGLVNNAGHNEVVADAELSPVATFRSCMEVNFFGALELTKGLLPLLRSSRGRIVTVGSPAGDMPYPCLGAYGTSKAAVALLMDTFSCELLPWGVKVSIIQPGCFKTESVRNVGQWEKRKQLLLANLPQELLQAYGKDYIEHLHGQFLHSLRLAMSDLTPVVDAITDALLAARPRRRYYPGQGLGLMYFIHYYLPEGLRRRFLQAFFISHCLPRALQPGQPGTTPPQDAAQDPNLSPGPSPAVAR
Protocol: The rat and human kidney microsomes were used for 11β-HSD2 sources. 11β-HSD2 activity was performed in the microsome according to a previously described method. In brief, the assay tubes contained 25 nM substrate CORT (for rat) or cortisol (for human), spiked with 30,000 cpm their respective ^3H-11β-hydroxyl steroid, 0.2 mM NAD+ and 0.1 mM DTT in the PBS buffer. 8 (rat) or 20 (human) µg kidney microsomes were added to each tube to initiate the reaction and the reaction mixture was incubated for up to 3 hrs, during which the reaction is within the linear range. The rest procedure was similar to 11β-HSD1 assay. The percentage conversion of CORT to 11DHC or cortisol to cortisone was calculated by dividing the radioactive counts identified as 11keto-steroids by the total counts.
(§1) The IC50 was determined by adding different concentrations of each compound in the 11β-HSD1 or 11β-HSD2 reaction as described. The mode of inhibition was assayed by adding various concentrations of steroid substrates in the presence of an inhibitor as described.

[1] = human, oral doses up to 8 g; cited from earlier work
Human 11β-HSD1 = molecular target: T2, Human 11β-HSD1 (Homo sapiens, UniProt P28845); test: 11β-HSD1 assay in intact CHOP cells transfected with human HSD11B1; format: cell-based
T2 construct: expressed in transfected cells; host or cells: CHOP cells (transient, FuGENE)
Protocol: An expression plasmid was constructed to express human 11β-HSD1 (HSD11B1) cDNA in pcDNA I expression vector from its original human HSD11B1 vector (pBluescriptSK+).[15]. The Escherichia coli transformants carrying an insert were selected by colony hybridization, and a clone with the insert in the correct orientation relative to the vector T7 promoter was identified by restriction mapping. All transfections were carried out on 80% confluent cultures in 12-well plates. Aliquots of 1 µg HSD11B1 pcDNA I were transfected into mammalian CHOP cells with the FuGENE Transfection Reagent (Roche) according to manufacturer's protocol. Cells were allowed to grow for 24 hours in media containing 10% fetal bovine serum. Then media were removed and cells were harvested for 11β-HSD1 activity assay.
(§2) 11β-HSD1 reductase activity was performed in intact cells using endogenous cofactor NADPH as described previously. […] 25×10^3 cells were added to each tube to initiate the reaction and the reaction mixture was incubated for up to 2 hrs, during which the reaction is within the linear range. At the end of reaction, the reaction was stopped by adding 2 ml ice-cold ether. The steroids were extracted, and the organic layer was dried under nitrogen. The steroids were separated chromatographically on thin layer plates in chloroform and methanol (90∶10, v/v), and the radioactivity was measured using a scanning radiometer (System AR2000, Bioscan Inc., Washington, DC) as described previously. The percentage conversion of 11DHC to CORT or cortisone to cortisol was calculated by dividing the radioactive counts identified as 11-OH-steroids by the total counts.
as §1

[2] = molecular target: T3, rat liver microsomal 11β-HSD1 (Rattus norvegicus, UniProt P16232); test: Mode of inhibition (Lineweaver-Burk), rat liver microsomal 11β-HSD1; format: biochemical; settings: Lineweaver-Burk plot, substrate 11DHC
T3 construct: Rat liver, testis and kidney microsomes were prepared as described previously; from tissue; host or cells: rat liver microsomes
Protocol: The rat testis and liver or human liver microsomes were used for 11β-HSD1 assay. 11β-HSD1 activity was performed in the microsome according to a previously described method. In brief, the assay tubes contained 25 nM substrate 11DHC (for rat) or cortisone (for human), spiked with 30,000 cpm their respective ^3H-11keto-steroid, 0.2 mM NADPH and 5 mM glucose-6-phosphaare in the PBS buffer. 2 µg microsomes were added to each tube to initiate the reaction and the reaction mixture was incubated for up to 2 hrs, during which the reaction is within the linear range. The rest procedure was similar to 11β-HSD1 assay in intact cells.
as §1
Enzyme data were subjected to nonlinear analysis by GraphPad (Version 5, GraphPad Software Inc., San Diego, CA) for IC50. Lineweaver-Burk plot was used for the mode of inhibition. Data were subjected to analysis by one-way ANOVA followed by Tukey's multiple comparisons testing to identify significant differences between groups when three were calculated. Differences were regarded as significant at P<0.05.

Rat 11β-HSD1 = molecular target: T4, Rat 11β-HSD1 (Rattus norvegicus, UniProt P16232); test: 11β-HSD1 assay in intact rat Leydig cells; format: cell-based
T4 construct: endogenous in cells; host or cells: primary adult Sprague-Dawley rat Leydig cells
Protocol: Rat Leydig cells contain the highest 11β-HSD1 activity in all cell types of rat tissues, and were used for rat 11β-HSD1 enzyme sources. Purified rat Leydig cells were obtained from 90-day-old Sprague-Dawley rats by collagenase digestion of the testes followed by Percoll density centrifugation of the cell suspension, according to the previously described method. […] The purity of cell fractions was evaluated by histochemical staining for 3β-hydroxysteroid dehydrogenase activity with […] etiocholanolone as the steroid substrate.
as §2, §1

rats = settings: cited from earlier work

T4 sequence (P16232 whole entry): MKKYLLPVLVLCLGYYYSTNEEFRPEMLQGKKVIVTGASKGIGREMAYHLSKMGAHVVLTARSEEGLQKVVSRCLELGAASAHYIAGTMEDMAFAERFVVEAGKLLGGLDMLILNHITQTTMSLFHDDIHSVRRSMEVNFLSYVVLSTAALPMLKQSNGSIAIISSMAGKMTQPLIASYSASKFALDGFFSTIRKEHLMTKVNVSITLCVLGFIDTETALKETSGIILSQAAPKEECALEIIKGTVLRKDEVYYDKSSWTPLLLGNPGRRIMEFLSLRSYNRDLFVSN
T2 sequence (P28845 whole entry): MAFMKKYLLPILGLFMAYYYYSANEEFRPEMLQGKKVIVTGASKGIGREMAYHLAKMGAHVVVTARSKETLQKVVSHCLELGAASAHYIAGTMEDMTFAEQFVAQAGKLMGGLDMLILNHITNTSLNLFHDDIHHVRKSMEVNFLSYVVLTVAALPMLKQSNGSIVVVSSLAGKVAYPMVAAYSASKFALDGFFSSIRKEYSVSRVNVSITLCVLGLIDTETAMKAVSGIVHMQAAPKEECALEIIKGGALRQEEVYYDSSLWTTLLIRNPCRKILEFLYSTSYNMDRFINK
T3 sequence (P16232 whole entry): as the sequence (P16232 whole entry) above

Structure (SMILES): COc1cc(/C=C/C(=O)CC(=O)/C=C/c2ccc(O)c(OC)c2)ccc1O [1 (Curcumin), Curcumin]
- IC50 (Human 11β-HSD2; read-out: IC50 (nM) Human 11β-HSD2): 14600 nM
- IC50 (Human 11β-HSD2; read-out: IC50 human 11β-HSD2): 14600 nM
- Time to peak level after oral administration [1]: ≤ 1 h
- IC50 (Human 11β-HSD1; CHOP cells transfected with human HSD11B1, read-out: Human 11β-HSD1 IC50 (nM) in CHOP cells): 2300 nM
- IC50 (Human 11β-HSD1; IC50 human 11β-HSD1 in intact cells, intact CHOP cells transfected with human HSD11B1): 5780 ± 2220 nM
- IC50 (Human 11β-HSD1; intact CHOP cells transfected with human HSD11B1, read-out: IC50 human 11β-HSD1 in intact cells): 2290 nM and 2000 to 6000 nM and 2300 nM
- Mode of inhibition of rat 11β-HSD1 [2]: competitive inhibitor
- IC50 (Rat 11β-HSD1; intact adult rat Leydig cells, read-out: IC50 rat 11β-HSD1 in intact cells): 5790 nM and 2290 nM and 2000 to 6000 nM
- IC50 (Rat 11β-HSD1; intact rat Leydig cells, read-out: Rat 11β-HSD1 IC50 (nM) in Leydig cells): 5790 nM
- Effect on serum and liver cholesterol levels (rats): lowered
